From patent EP0897920A1, “NOVEL HETEROCYCLIC COMPOUNDS HAVING PLATELET AGGREGATION INHIBITORY EFFECTS” (MEIJI SEIKA KABUSHIKI KAISHA, priority 1996, dated 1997)
Where a name gives a salt, the structure may show the parent alone. Read-outs that look alike come from different tables or passages of the source.

Key:
[1] = system: human PRP (platelet rich plasma); test: Inhibitory activity against platelet aggregation (ADP-induced, human PRP); type: cell-based; details: aggregation inducer ADP 5 µM, preincubated 2 min
Experimental: The inhibitory activity of the compound according to the present invention against platelet aggregation was examined with human PRP (platelet rich plasma).
Nine volumes of a blood sample was taken out of the vein of a normal human being with a syringe in which one volume of a 3.8% sodium citrate solution was charged. The blood sample was centrifuged at 170 x g at room temperature for 10 min. The supernatant thus obtained was isolated as PRP. The residual blood sample that PRP had been taken out was centrifuged at 2,700 x g for 15 min. The supernatant was then taken as platelet poor plasma (PPP).
A platelet aggregation test was carried out with an aggligometer (PAM-8C, manufactured by MEBANICKS Co. Ltd.). Compounds under test were dissolved in physiological saline, 0.1 N hydrochloric acid-physiological saline, or 1 N aqueous sodium hydroxide solution-physiological saline. The compound under test and PRP were preincubated for 2 min. An aggregation inducer ADP (CHRONO-PAR REAGENTS 384 ADP, CHRONO-LOG Corp.) was used after dilution with physiological saline to a final concentration of 5 µM.
The anti-platelet aggregation activity was determined as an inhibition rate to platelet aggregation effect of ADP in the absence of a compound under tent as follows. Anti-platelet aggregation activity (%) = [1 - (aggregation rate by ADP in the presence of test compound/aggregation rate by ADP in the absence of test compound)] x 100 [formula]

[2] = biological target: T1, human platelet GPIIb/IIIa (Homo sapiens, UniProt P05106+P08514); test: Inhibitory activity against binding between platelet GPIIb/IIIa and fibrinogen (solid phase receptor binding)
T1 construct: the adsorbed GPIIb/IIIa was eluted with buffer A containing 2 mM GRGDSPK peptide; from tissue
T1 sequence (P08514 32-887 limits assumed): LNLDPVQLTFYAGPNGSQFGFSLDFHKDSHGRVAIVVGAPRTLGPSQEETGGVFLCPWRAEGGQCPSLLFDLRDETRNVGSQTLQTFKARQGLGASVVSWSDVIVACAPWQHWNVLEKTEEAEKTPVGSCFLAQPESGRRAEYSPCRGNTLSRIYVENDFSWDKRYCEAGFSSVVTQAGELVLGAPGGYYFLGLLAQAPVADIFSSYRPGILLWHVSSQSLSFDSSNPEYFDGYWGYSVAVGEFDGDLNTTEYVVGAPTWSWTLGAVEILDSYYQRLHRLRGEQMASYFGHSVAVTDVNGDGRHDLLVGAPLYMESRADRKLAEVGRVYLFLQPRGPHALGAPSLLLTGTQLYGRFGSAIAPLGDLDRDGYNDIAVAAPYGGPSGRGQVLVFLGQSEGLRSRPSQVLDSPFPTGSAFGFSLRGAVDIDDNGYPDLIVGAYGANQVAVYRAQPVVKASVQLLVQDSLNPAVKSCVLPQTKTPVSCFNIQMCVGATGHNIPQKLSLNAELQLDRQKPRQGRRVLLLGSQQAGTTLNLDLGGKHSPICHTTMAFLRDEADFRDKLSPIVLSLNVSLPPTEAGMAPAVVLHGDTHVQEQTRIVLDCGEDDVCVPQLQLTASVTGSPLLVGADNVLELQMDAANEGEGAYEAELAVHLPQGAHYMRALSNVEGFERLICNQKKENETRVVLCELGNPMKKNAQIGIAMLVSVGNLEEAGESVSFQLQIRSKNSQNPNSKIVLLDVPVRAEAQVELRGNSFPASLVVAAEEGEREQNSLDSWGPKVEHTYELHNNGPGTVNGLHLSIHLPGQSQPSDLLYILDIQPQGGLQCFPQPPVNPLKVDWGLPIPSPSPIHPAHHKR
T1 sequence (P08514 891-1039 partner limits assumed): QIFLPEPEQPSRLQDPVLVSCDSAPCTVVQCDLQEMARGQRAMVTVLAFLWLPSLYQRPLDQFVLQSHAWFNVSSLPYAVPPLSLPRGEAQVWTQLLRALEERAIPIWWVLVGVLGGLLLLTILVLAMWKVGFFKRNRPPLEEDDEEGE
T1 sequence (P05106 27-788): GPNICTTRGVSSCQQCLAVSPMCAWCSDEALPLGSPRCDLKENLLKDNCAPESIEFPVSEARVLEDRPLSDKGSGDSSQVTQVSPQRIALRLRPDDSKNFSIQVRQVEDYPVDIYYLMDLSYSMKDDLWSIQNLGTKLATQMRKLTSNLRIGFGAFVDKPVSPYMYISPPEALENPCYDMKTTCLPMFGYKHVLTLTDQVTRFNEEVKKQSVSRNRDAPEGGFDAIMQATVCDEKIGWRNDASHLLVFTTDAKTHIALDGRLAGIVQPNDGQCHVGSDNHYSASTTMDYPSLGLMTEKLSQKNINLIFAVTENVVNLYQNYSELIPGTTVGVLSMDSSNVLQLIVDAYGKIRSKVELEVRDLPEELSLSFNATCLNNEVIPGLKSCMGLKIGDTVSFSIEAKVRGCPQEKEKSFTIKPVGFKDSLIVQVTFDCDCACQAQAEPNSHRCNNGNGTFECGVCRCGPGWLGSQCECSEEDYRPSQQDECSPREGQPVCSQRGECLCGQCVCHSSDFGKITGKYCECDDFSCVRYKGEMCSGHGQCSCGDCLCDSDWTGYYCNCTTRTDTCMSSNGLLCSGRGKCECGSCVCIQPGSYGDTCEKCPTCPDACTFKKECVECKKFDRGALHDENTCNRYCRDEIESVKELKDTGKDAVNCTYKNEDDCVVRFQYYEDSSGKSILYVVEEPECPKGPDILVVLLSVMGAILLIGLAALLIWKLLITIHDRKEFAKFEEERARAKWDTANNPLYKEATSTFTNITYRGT
From the text: The inhibitory activity of the compounds of the present invention against binding between platelet GPIIb/IIIa and fibrinogen was examined by means of a human platelet GPIIb/IIIa solid phase receptor binding experiment system using a biotinylated human fibrinogen as a ligand.
At the outset, human platelet GPIIb/IIIa was purified according to a method established by Pytela, R et al. (Science, 231, 1559-1561 (1986)). Specifically, platelets collected from a normal human being was washed with TBS (0.15 M NaCl/50 mM Tris-HCl buffer (pH 7.5)) containing 0.2% (w/v) glucose. To the resultant pellet was added an equal amount of TBS containing 50 mM octylglucoside and 2 mM PMSF, followed by solubilization of membrane protein at 4°C for 20 min. The extract was centrifuged under conditions of 4°C, 3500 x g, and 20 min. To the supernatant were added 1 mM CaCl2 and 1 mM MgCl2. Thus, a sample for affinity chromatography was prepared. The solubilized protein solution was adsorbed on a GRGDSPK-Sepharose column which had been previously equilibrated with TBS containing 50 mM octylglucoside, 1 mM CaCl2, and 1 mM MgCl2 (buffer A). After washing with buffer A, the adsorbed GPIIb/IIIa was eluted with buffer A containing 2 mM GRGDSPK peptide.
The GRGDSPK-Sepharose was prepared by coupling of GRGDSPK peptide with CNBr-activated Sepharose 4B (manufactured by Pharmacia) according to the instruction manual of the manufacturer.
Next, a human platelet GPIIb/IIIa solid phase receptor binding test was carried out according to a method established by Mori et al. (Nippon Kessen Shiketsu Gakkaishi, 2(4), 323-329 (1991)).
Purified human platelet GPIIb/IIIa was adjusted to 2 µg/ml, and an 50 µl aliquot was adsorbed on each well of a 96 well microtiter plate at 4°C overnight. After washing with TBS containing 1 mM CaCl2 and 1 mM MgCl2, 100 µl of 1% bovine serum albumin was added to each of the wells, followed by blocking at 4°C overnight. The microtiter plate was then washed with TBS containing 0.01% Tween 20 (TBS-Tween 20), and 50 µl of biotinylated fibrinogen, which had been adjusted to 1 µg/ml, was added to each of the wells. Simultaneously, 50 µl of the test compound, which had been adjusted to appropriate concentrations, was added thereto, followed by a reaction at room temperature for 4 hr. After washing with TBS-Tween 20, 50 µl of peroxidase-labelled avidin, which had been diluted 4000 times with TBS, was added to each of the wells, followed by a reaction for 20 min. After washing with TBS-Tween 20, 50 µl of a solution of 1 mg/ml ABTS (2,2'-azino-bis(3-ethylbenzthiazoline-6-sulfonic acid) dissolved in a peroxidase substrate buffer, which had been diluted 10 times, was added to each of the wells, and a reaction was allowed to proceed for 5 min. Next, 50 µl of a 0.1 M citric acid buffer (pH 4.3) containing 0.05% NaN3 was added to each of the wells to terminate the reaction, and the absorbance was measured at 415 nm.
The binding inhibition was calculated by the following equation.
Binding inhibition (%) = [1 - (absorbance with test compound/absorbance without test compound)] x 100

human TXA2 synthetase = biological target: T2, human TXA2 synthetase (Homo sapiens, UniProt P24557); test: Inhibitory activity against thromboxane A2 (TXA2) synthetase; type: biochemical
T2 construct: purchased BIOMOL
T2 sequence (P24557 1-533): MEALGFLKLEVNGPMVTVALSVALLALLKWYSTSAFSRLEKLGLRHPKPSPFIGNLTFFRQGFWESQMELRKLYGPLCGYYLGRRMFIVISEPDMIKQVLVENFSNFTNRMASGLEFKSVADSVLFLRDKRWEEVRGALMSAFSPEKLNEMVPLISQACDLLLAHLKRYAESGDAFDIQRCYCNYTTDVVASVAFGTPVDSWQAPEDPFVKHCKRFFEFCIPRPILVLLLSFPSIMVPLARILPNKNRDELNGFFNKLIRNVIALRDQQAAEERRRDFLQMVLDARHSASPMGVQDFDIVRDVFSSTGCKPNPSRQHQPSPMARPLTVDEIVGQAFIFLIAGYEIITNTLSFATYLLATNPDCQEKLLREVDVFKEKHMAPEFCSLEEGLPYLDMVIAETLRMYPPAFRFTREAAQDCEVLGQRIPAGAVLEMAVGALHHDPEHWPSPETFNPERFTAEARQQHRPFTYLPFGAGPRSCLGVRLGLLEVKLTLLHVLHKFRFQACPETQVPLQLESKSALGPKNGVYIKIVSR
Experimental: The inhibitory activity of the compound of the present invention against TXA2 synthetase was assayed according to a method established by Ri et al. (Nihon Yakuri Gakkaishi, 106, 31 (1995)). A specimen solution (10 µl) was added to 100 µl of a 50 mM Tris-HCl buffer (containing 0.1 M NaCl, pH 7.5, 25°C) containing 10 µg of human TXA2 synthetase (BIOMOL), and incubation was then carried out at 25°C for 3 min. Next, 2 µl of 50 µg/ml PGH2 solution (Cayman Chemical) was added thereto to initiate an enzyme reaction, followed by the reaction at 25°C for 3 min. An aqueous ferrous chloride solution (25 mM, 10 µl) was added thereto to terminate the reaction. The reaction system was allowed to stand at room temperature for 15 min and then centrifuged under conditions of 4°C, 3000 x g, and 10 min. The supernatant was obtained as a sample for quantitative determination of TXB2. The amount of TXB2 was determined by means of Thromboxane B2 Enzyme Immunoassay Kit (Cayman Chemical). After a color reaction, the absorbance was measured at 415 nm with a microplate reader (MTP-32, manufactured by Corona Electric Co., Ltd.). The inhibition against TXA2 synthetase activity was calculated by the following equation, and 50% inhibition concentration was determined by regression straight line. Inhibition (%) = (1 - B/A) x 100 [formula] wherein • A represents the amount of TXB2 produced without the test compound; and • B represents the amount of TXB2 produced with the test compound.

[3] = purified human platelet GPIIb/IIIa, biotinylated human fibrinogen as ligand, read-out: IC50
[4] = human TXA2 synthetase, PGH2 substrate, 25°C, TXB2 determined by enzyme immunoassay, read-out: IC50

Compound | IC50 ([1]; Platelet) [nM] | IC50 [2, 3] [nM] | IC50 (human TXA2 synthetase; [4]) [nM] | IC50 ([2]; purified human platelet GPIIb/IIIa, biotinylated human fibrinogen as ligand) [nM] | IC50 (human TXA2 synthetase; human TXA2 synthetase, PGH2 substrate, 25°C, TXB2 determined by enzyme immunoassay) [nM] | IC50 [1] [nM] | IC50 [2] [nM] | IC50 (human TXA2 synthetase) [nM]
CN(CC(Oc1cccnc1)c1ccc(OCC(=O)O)c(OCC(=O)O)c1)C(=O)c1cc2c(s1)CCNC2 (stereo not drawn) [Example 4, [[4-[2-[[(4,5,6,7-Tetrahydrothieno[3,2-c]pyridin-2-yl)carbonyl]-N-methylamino]-1-(pyridin-3-yl)oxyethyl]-o-phenylene]dioxy]diacetic acid trifluoroacetate] | 140 | 4.8 | 870 | – | – | – | – | –
O=C(O)COc1ccc(C(CNC(=O)c2cc3c(s2)CCNC3)Oc2cccnc2)cc1 (stereo not drawn) [Example 5, [4-[2-[[(4,5,6,7-Tetrahydrothieno[3,2-c]pyridin-2-yl)carbonyl]amino]-1-(pyridin-3-yl)oxyethyl]phenyl]oxyacetic acid trifluoroacetate] | 280 | 10 | 160 | – | – | – | – | –
O=C(O)COc1ccc(C(CNC(=O)c2cc3c(s2)CCNC3)Oc2cccnc2)cc1OCC(=O)O (stereo not drawn) [Example 3, [[4-[2-[[4,5,6,7-Tetrahydrothieno[3,2-c]pyridin-2-yl]carbonyl]amino-1-[(pyridin-3-yl)oxy]ethyl]-o-phenylene]dioxy]diacetic acid trifluoroacetate] | 360 | 1.4 | 550 | – | – | – | – | –
O=C(O)COc1ccc(C(=O)CN2C(=O)CN(C3CCNCC3)CC2=O)cc1Cn1ccnc1 [Example 8, [2-(1-Imidazolylmethyl)-4-[[4-(piperidin-4-yl)-2,6-dioxopiperazin-1-yl]acetyl]phenyl]oxyacetic acid trifluoroacetate] | 31 | – | – | 190 | 690 | – | – | –
[4-[[4-(Piperidin-4-yl)-2-oxopiperazin-1-yl]acetyl]-2-(3-pyridyloxymethyl)phenyl]oxyacetic acid trifluoroacetate [Example 7] | – | 23 | > 10000 | – | – | 93 | – | –
O=C(O)COc1ccc(C(=O)CNC(=O)c2cc3c(s2)CCNC3)cc1Cn1ccnc1 [Example 1, [2-(Imidazol-1-yl)methyl-4-[[[4,5,6,7-tetrahydrothieno[3,2-c]pyridin-2-yl]carbonylamino]acetyl]phenyl]oxyacetic acid trifluoroacetate (TFA)] | 4400 | 270 | 360 | – | – | – | – | –
O=C(O)COc1ccc(C(=O)CN2CCN(C3CCNCC3)CC2=O)cc1Cn1ccnc1 [Example 6, [2-(1-Imidazolylmethyl)-4-[[4-(piperidin-4-yl)-2-oxopiperazin-1-yl]acetyl]phenyl]oxyacetic acid trifluoroacetate] | 71 | – | – | – | – | – | 12 | 570
O=C(O)COc1ccc(C(=O)CNC(=O)c2cc3c(s2)CCNC3)cc1COc1cccnc1 [Example 2, [2-(Pyridin-3-yl)oxymethyl-4-[[[4,5,6,7-tetrahydrothieno[3,2-c]pyridin-2-yl]carbonylamino]acetyl]phenyl]oxyacetic acid trifluoroacetate] | 9300 | 270 | > 10000 | – | – | – | – | –
